{"source": "patent US7964701B2", "about": "“Alpha-fetoprotein peptides” (Albany Medical College, priority 2006, dated 2011)", "key": {"[1]": {"test_system": "E2-stimulated growth of mouse uterus", "assay": "Immature mouse uterine growth assay", "assay_type": "in vivo", "settings": "1 μg/mouse intraperitoneally", "description": "The anti-breast cancer activity of the linear and cyclic 8-mer and 9-mer AFP-derived peptides is well-documented using the immature mouse uterine growth assay and the human breast cancer xenograft assay; there is a strong correlation between the results of these two assays. To evaluate peptide-induced inhibition by the peptide of the present invention of estrogen-stimulated proliferation of normal tissue, the immature mouse uterine growth assay was utilized. Briefly, 13-15 day-old Swiss/Webster female mice, 6-8 g in body weight, were distributed into treatment groups of 5 mice per group so that each group contained animals of the same range of body weight. The peptide of the invention was injected i.p., s.c., or p.o. into the mice. One hour later, estradiol (E2) or vehicle control for E2 was injected i.p. Twenty-two hours after the second injection, uteri were harvested, trimmed free of mesenteries, and immediately weighed. The uterine weights were normalized to mouse body weights to compensate for differences in body weight among litters of the same age. Experiments employed a minimum of five mice per group and the mean normalized uterine weight±SE for each group was calculated. Percent growth inhibition in a test group was calculated from normalized uterine wet weights as described below.\nDifferences between groups were evaluated, employing the nonparametric Wicoxon ranks sum test. In all cases, growth inhibitions that were greater than 25% were significant at P≦0.05.\nIn other experiments, peptide analogs comprising the sequences TOVN SEQ ID NO.: 3) and TPVN (SEQ ID NO.: 2) were assessed for their ability to inhibit E2-stimulated growth of mouse uterus after intraperitoneal and oral administration.\nThe ability to inhibit E2-stimulated growth of normal mouse uterus was used as a screening assay for biological activity of AFPep analogs. In general, inhibitory activity≧20% is considered to be biologically significant. Each analog's inhibitory effect on E2-stimulated growth was compared to AFPep (a positive control) and to PGVGQ (SEQ ID NO.: 44)(a negative control). PGVGQ (SEQ ID NO.: 44) (amino acids 478-482 of AFP) is a portion of the primary structure of AFP near to the anti-cancer active site of AFP and is comprised of amino acids (P, V, and G) that are important components of AFPep. A scrambled analog of AFPep was not used because some scrambled peptides retain low biological activity (data not shown). In Table 3, bold letters denote the sequences containing a putative Type I beta-turn, which was postulated to be necessary for antiestrogenic activity."}, "[2]": {"test_system": "E2-stimulated growth of mouse uterus", "settings": "Mesfin et al. / earlier studies; cited from earlier work"}}, "note": "Entries after “also recorded” stand apart in the source; their conditions may differ.", "data": [{"substance": "MTPVNPG [7-mer peptide earlier reported by Mesfin et al, reference compound]", "values": [{"measurement": "Inhibition ± S.E, % Immature mouse uterine growth Intraperitoneal", "setting": "[1]", "result": "18 ± 1", "unit": "%"}, {"measurement": "antiestrogenic activity (inhibition of E2-stimulated uterine growth), in words", "setting": "[1]; Table 3 discussion", "result": "significantly less activity"}, {"measurement": "antiestrogenic activity reported in earlier studies", "setting": "[2]", "result": "substantially reduced antiestrogenic properties; also recorded: little antiestrogenic activity"}]}]}
